Values joined by “and” are separate entries in the source; they are usually repeats but may differ in a detail not shown here. Equal values may be shown once.

Data set [1] deals with HepG2/C3A organoids. As to the kind of experiment: Neutral lipid and phospholipid staining of HepG2/C3A organoids on chip. In kind it is cell-based, human. The settings on record: p<0.001, n=9.
The subject of data set [2] is E6/E7^LOW human hepatocytes. As to the kind of experiment: Steatosis and phospholipidosis, HCS LipidTOX detection kit, hepatocyte cultures. Format: cell-based. How it is done:
Quantification of Apoptotic index was performed using DeadEnd™ fluorometric TUNEL System (Promega) according to manufacturer directions. Briefly, cells were treated with TC20 concentrations of compounds dissolved in culture medium for 24 hours, and subsequently fixed in 4% Paraformaldehyde (PFA). Cells were then permeabilized and exposed to fluorescein-12-dUTP and terminal deoxynucleotidyl transferase (TdT). The reaction was subsequently stopped and the cells counterstained with 1 μg/mL Hoechst 33258. Apoptotic cells were positive for green fluorescence in the nucleus. Percentage apoptosis was defined as the number of TUNEL positive nuclei normalized to Hoechst 33258 positive nuclei. Quantification of Steatosis was performed using HCS LipidTOX™ Phospholipidosis and Steatosis Detection Kit (ThermoFisher). Briefly, differentiated cells were incubated with different concentrations of compounds dissolved in culture medium and 1× Phospholipidosis Detection Reagent for 48 hours, subsequently fixed in 4% PFA. Cells were then stained with 1× LipidTOX™ for 20 minutes and counterstained with 1 μg/mL Hoechst 33258. Staining intensity was normalized to number of Hoechst 33258 positive nuclei. Quantification of Bile Secretion was performed using 5(6)-carboxy-2′,7′-dichlorofluorescein diacetate (CDFDA) staining. Briefly, differentiated cells were incubated with different concentrations of compounds dissolved in culture medium for 24 hours. Cells were then treated with 10 μg/mL CDFDA and 1 μg/mL Hoechst 33342 for 30 minutes. Incubation medium was removed and cultures washed with ice-cold PBS containing calcium and magnesium. Staining intensity was normalized to number of Hoechst 33342 positive nuclei. Analysis excluded Intracellular CDFDA staining based on intensity and phase images. All quantifications were made in comparison to cells treated with melatonin as negative control.
Quantification of Apoptotic index was performed using DeadEnd™ fluorometric TUNEL System (Promega) according to manufacturer directions. Briefly, cells were treated with TC20 concentrations of compounds dissolved in culture medium for 24 hours, and subsequently fixed in 4% Paraformaldehyde (PFA). Cell were then permeabilized and exposed to fluorescein-12-dUTP and terminal deoxynucleotidyl transferase (TdT). The reaction was subsequently stopped and the cells counterstained with 1 μg/mL Hoechst 33258. Apoptotic cells were positive for green fluorescence in the nucleus. […] Quantification of Steatosis was performed using HCS LipidTOX™ Phospholipidosis and Steatosis Detection Kit (ThermoFisher). […] Quantification of Bile Secretion was performed using 5(6)-carboxy-2′,7′-dichlorofluorescein diacetate (CDFDA) staining. […] All quantifications were made in comparison to cells treated with melatonin as negative control.

For data set [3] the following is noted: cited from earlier work.
Data set [4] relates to HepG2/C3A organoids. As to the kind of experiment: Real-time oxygen uptake toxicity (TC50, time to onset, lowest exposure level) in differentiated HepG2/C3A organoids. In kind it is cell-based, human. The note with it: for TC50: oxygen uptake; for lowest exposure level (LEL): horizontal asymptote, onset of damage at infinite time. How it is done:
A suspension of HepG2/C3A cells and CPOx-50-RuP beads (Colibri Photonics, Germany) were suspended in 2.5 mg/ml rat tail collagen type I (Corning, USA) at a cell density of 7×10^5 cells/μl. A volume of 1.1 μl of the gel-imbedded mixture was injected into each microwell and left to form spontaneously until their metabolic activity stabilized around day 4.
Fifty-micrometer-diameter polystyrene microbeads were loaded with ruthenium-phenanthroline-based phosphorescence dye (CPOx-50-RuP). […] Oxygen acts as a quencher, leading to a decrease in decay time and signal intensity with increasing concentration. The present inventors chose to measure decay time, rather than signal intensity, as it is not sensitive to changes in probe concentration or excitation intensity over the course of the experiment. The signal was measured using the OPAL system (Colibri Photonics, Germany) that comprises of a control module, 532 nm LED excitation source, and a photomultiplier (PMT) detector mounted on the ocular of an IX81 Olympus microscope (Olympus, Japan). A filter cube with 531/40 (Ex), 555, 607/70 (Em) was inserted in the optical light path during measurements. To accurately measure decay time, the present inventors chose phase modulation in which sinusoidal amplitude-modulated light is shifted in phase due to oxygen quenching. To overcome the superposition of in-phase background fluorescence that alters the phase of the detected signal, the present inventors used a novel 53.5 and 31.3 kHz two-frequency phase modulation that allowed to screen out the interference [Schmalzlin E., et al., 2005. Biophysical journal, 89: 1339-1345; Papkovsky, D. B. et al., 2004. Methods in enzymology, 381, 715-735; Ast, C., et al., 2012. Sensors (Basel), 12: 7015-7032; Engelhard, S., et al., 2006. Analytical and bioanalytical chemistry, 384: 1107-1112; Prill, D. et al., 2016, Archives of toxicology, 90: 1181-1191]. Measurements were carried out by averaging five consecutive 4-s exposures. Measurements were taken every 15 minutes. Under similar conditions, 28 days of measurement of organoids was done with no apparent phototoxicity, signal drift, or relevant loss of signal intensity (Schmalzlin E., et al., 2005. Biophysical journal, 89: 1339-1345). Assessment of Cellular Toxicity and Time to Onset
Organoids were exposed to different concentrations of compounds dissolved in culture medium. Cell viability was determined by oxygen uptake following 24 hours of exposure unless otherwise noted. TC50 concentrations were determined using MATLAB by sigmoidal curve fitting (Wenner, M. M. et al., 2011, J Appl Physiol (1985), 111: 1703-1709; Prentice, R. L. et al., 1976, Biometrics, 32: 761-768). Time to onset was analyzed by MATLAB based on LPF and trend assessment.
To find the asymptotic concentration for which damage occurs only at infinite exposure time, the present inventors used a previously developed model for accumulative drug exposure (El-Kareh et al., 2000. Neoplasia, 2: 325-338; Currie, G. M. 2018. J Nucl Med Technol, DOI: 10.2967/jnmt.117.199588). The model is based on the steady-state dynamics of flux accumulation, using a linear first-order approximation of the cell membrane. The flux behavior is described by
where J(C) is the concentration dependent flux, Jmin is the minimal flux that will cause an effect, t is time of exposure and |τ is a drug-cell specific constant accounting reaction dynamics (Gowrishankar et al., 2003. Proceedings of the National Academy of Sciences of the United States of America, 100: 3203-3208; Kotnik T. et al., 2000. IEEE Trans Biomed Eng, 47: 1074-1081). In the present case, t is the Time to Onset (TTO) of damage creating a bi-asymptotic behavior. This adapted model is used to describe lowest exposure level (LEL) under first order, steady state assumptions, as
Real-time oxygen measurements were performed optically using on-chip lifetime-based luminescence quenching (LBLQ). […]

The next data set has as its system E6/E7^LOW hepatocytes. The settings on record: flux balance analysis, below threshold of cellular damage; Valproate sustained, Stavudine transient. How it is done:
According to some embodiments of the invention there is a sensor-integrated liver on chip array in which oxygen is monitored using two-frequency phase modulation of tissue-embedded phosphorescent microprobes, while glucose, lactate and temperature are measured in real time using microfluidic electrochemical sensors. Such a microphysiological platform permits the calculation of dynamic changes in metabolic fluxes around central carbon metabolism, producing a unique metabolic fingerprint of the liver's response to stimuli.

Consider `CCCC(CCC)C(=O)O` [Valproate, 2-n-propylpentanoic acid], for which, in the data set with HepG2/C3A organoids [1], the “increase in the amount of intracellular lipids” value is 4 fold. The phospholipidosis entry in data set [2] is given as “Evidence of phospholipidosis was seen”. Moreover, the neutral lipids result in data set [2] (p<0.001, n=4) was “strong and significant increase”. The “patients with evidence of steatosis” value in data set [3] (abdominal ultrasound) is 61%. For the same molecule, the “patients with elevated liver enzymes” value in data set [3] (patients on therapy) is given as “Over 40%”. In addition, the TC50 with HepG2/C3A organoids [4] (at 24 hours) was 27 mM; with HepG2/C3A organoids [4] (at 42 hours) it was 14 mM and 14 ± 2 mM. Also, the “Time to onset (TTO) of response” value with HepG2/C3A organoids [4] (dose-dependent range over concentrations tested) lay within 6 to 36 h. The “lowest exposure level (LEL)” value in the data set with HepG2/C3A organoids [4] (± standard error) and in the data set on HepG2/C3A organoids [4] (± standard error of curve fit) was 280 ± 97 µM throughout. Moreover, the “TC50 plateau value as a function of time” value in the data set on HepG2/C3A organoids [4] (plateau of TC50 over time) is on record as “around 5 mM”. In addition, the direct mitochondrial damage result in the data set with HepG2/C3A organoids [4] (sub-toxic levels) is on record as “no indication of direct mitochondrial damage”. The same molecule returned an increase in lipogenesis in the data set with E6/E7^LOW hepatocytes of 15%.

These data come from patent US12631620B2, “Methods of generating organoids for high throughput screening of drugs” (Yissum Research Development Company of the Hebrew …, priority 2019, dated 2026).
